Assay results taken from PubChem BioAssay (NCI).
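Cultured in 96-well plates, cells were exposed to test compound for 48 hours across five concentrations. Here, GI50 denotes the concentration required for 50% inhibition of growth. TGI: concentration producing complete growth inhibition.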

Key:
Assay in all cases: NCI anticancer screen, dose series, 48 h
[1] = tested on: MCF7 breast
[2] = tested on: NCI-H522 lung
[3] = tested on: M14 melanoma
[4] = tested on: UO-31 renal
[5] = tested on: A498 renal
[6] = tested on: UACC-62 melanoma
[7] = tested on: HOP-62 NSCLC
[8] = tested on: SR leukemia
[9] = tested on: HCT-15 colon
[10] = tested on: U251 CNS
[11] = tested on: UACC-257 melanoma
[12] = tested on: IGROV1 ovarian
[13] = tested on: HT29 colon
[14] = tested on: SF-268 CNS
[15] = tested on: OVCAR-5 ovarian
[16] = tested on: MALME-3M melanoma
[17] = tested on: HCC-2998 colon
[18] = tested on: OVCAR-8 ovarian
[19] = tested on: MDA-MB-231 breast

SMILES	TGI [1]	TGI [2]	TGI [3]	TGI [4]	TGI [5]	TGI [6]	TGI [7]	TGI [8]	TGI [9]	TGI [10]	TGI [11]	TGI [12]	TGI [13]	TGI [14]	TGI [15]	TGI [16]	TGI [17]	TGI [18]	TGI [19]	GI50 [14]
CN(C)CCNC(=O)Cn1cnc2cccc([N+](=O)[O-])c2c1=O	> 100 µM	> 100 µM	> 100 µM	> 100 µM	> 100 µM	> 100 µM	> 100 µM	> 100 µM	> 100 µM	> 100 µM	> 100 µM	> 100 µM	> 100 µM	> 100 µM	> 100 µM	> 100 µM	> 100 µM	–	–	–
CCN(CC)Cc1ccc(C(=S)Nc2ccc(C)cc2)s1	25.1 µM	28.9 µM	28.9 µM	28.9 µM	27.2 µM	28.1 µM	34.5 µM	37.6 µM	32.3 µM	30 µM	24.1 µM	26.2 µM	14.4 µM	4.42 µM	29.5 µM	32.5 µM	25.6 µM	35.3 µM	–	–
CC1=NN(c2nc(N)nc(C/C(N)=N/O)n2)C(C)(C)C1	> 100 µM	> 100 µM	> 100 µM	> 100 µM	> 100 µM	> 100 µM	> 100 µM	–	> 100 µM	> 100 µM	> 100 µM	> 100 µM	> 100 µM	> 100 µM	> 100 µM	> 100 µM	> 100 µM	> 100 µM	> 100 µM	–
C=C(C(=C)N1N=NC2C3CCC(C3)C21)N1N=NC2C3CCC(C3)C21 (stereo not drawn)	–	> 100 µM	> 100 µM	> 100 µM	–	> 100 µM	> 100 µM	> 100 µM	–	> 100 µM	> 100 µM	> 100 µM	> 100 µM	> 100 µM	> 100 µM	> 100 µM	> 100 µM	> 100 µM	–	–
C=CCN1/C(=C2\SC(=S)N(c3ccc(C)cc3)C2=O)Sc2c1nc[nH]c2=O	–	> 100 µM	> 100 µM	> 100 µM	> 100 µM	> 100 µM	> 100 µM	–	> 100 µM	> 100 µM	> 100 µM	> 100 µM	> 100 µM	> 100 µM	> 100 µM	> 100 µM	–	> 100 µM	–	–
Nc1ccc(C23CC4CC(C2)CC(c2ccc(N)cc2)(C4)C3)cc1	> 100 µM	–	85.5 µM	> 100 µM	47.4 µM	> 100 µM	> 100 µM	38.5 µM	> 100 µM	35.6 µM	> 100 µM	> 100 µM	–	> 100 µM	61.4 µM	–	78.6 µM	> 100 µM	–	–
COC(=O)C(Br)C1CCc2ccccc21 (stereo not drawn)	–	–	> 100 µM	> 100 µM	> 100 µM	> 100 µM	> 100 µM	> 100 µM	> 100 µM	> 100 µM	> 100 µM	> 100 µM	> 100 µM	> 100 µM	> 100 µM	> 100 µM	> 100 µM	> 100 µM	–	–
O=C1c2c(ccc3c2CCC3)CC12Cc1ccccc1C2	> 100 µM	73.7 µM	> 100 µM	59.7 µM	96.2 µM	–	> 100 µM	–	> 100 µM	> 100 µM	57.4 µM	> 100 µM	47.1 µM	> 100 µM	> 100 µM	54 µM	89 µM	> 100 µM	71.3 µM	–
Cc1ccc(C(=O)/C=C/c2cccc([N+](=O)[O-])c2)cc1	–	> 100 µM	> 100 µM	> 100 µM	> 100 µM	> 100 µM	> 100 µM	51.1 µM	> 64 µM	> 55.5 µM	> 100 µM	> 100 µM	> 66.1 µM	> 100 µM	–	> 100 µM	> 92 µM	> 100 µM	–	–
CCOC(=O)c1cc(Br)c(-c2cc(C)no2)[nH]1	–	78.9 µM	> 100 µM	> 100 µM	75.6 µM	> 100 µM	–	–	> 100 µM	> 100 µM	> 100 µM	–	> 100 µM	> 100 µM	> 100 µM	61.3 µM	–	> 100 µM	> 100 µM	–
CN1C(=O)C(O)CC1c1ccccc1C(F)(F)F (stereo not drawn)	> 100 µM	> 100 µM	> 100 µM	> 100 µM	> 100 µM	> 100 µM	> 100 µM	–	> 100 µM	> 100 µM	> 100 µM	> 100 µM	> 100 µM	–	> 100 µM	> 100 µM	> 100 µM	> 100 µM	> 100 µM	–
CCOC(=O)c1cnc2sc3ccc4ccccc4c3n2c1=O	–	–	> 100 µM	94.6 µM	–	> 100 µM	> 100 µM	> 100 µM	> 100 µM	> 100 µM	> 100 µM	> 100 µM	> 100 µM	> 100 µM	> 100 µM	> 100 µM	> 100 µM	> 100 µM	–	–
COc1ccc(/C=C2\CCC(CCN(C)C)(C3=CCCC3)C2=O)cc1Br (stereo not drawn)	–	3.98 µM	3.34 µM	17.6 µM	23.5 µM	–	30.9 µM	5.06 µM	15.5 µM	19 µM	5.5 µM	14.7 µM	7.14 µM	23 µM	27.1 µM	28 µM	4.71 µM	21.9 µM	–	–
CC(=O)OCC1OC(O[C@@H]2C[C@H]3C(C)(C)[C@@H](OC(C)=O)CC[C@]3(C)[C@H]3CC[C@]45C[C@]4(CC[C@H]5[C@@H](C)C[C@@H](O)[C@H](O)C(C)(C)F)[C@@]32C)C(O)C(O)C1O (stereo partly drawn)	> 100 µM	4.82 µM	3.28 µM	–	76.5 µM	> 100 µM	> 100 µM	–	5.94 µM	41.1 µM	> 100 µM	4.45 µM	3.05 µM	3.05 µM	2.81 µM	3.48 µM	> 100 µM	6.1 µM	48.2 µM	–
CC1(c2ccc(Cl)s2)CC(c2ccc(Cl)s2)=C(C#N)C(=C(C#N)C#N)N1 (stereo not drawn)	39.9 µM	–	36.4 µM	34.5 µM	37.8 µM	30.7 µM	36 µM	–	35.4 µM	33.2 µM	43.4 µM	35.3 µM	36.8 µM	48.9 µM	35.8 µM	43.1 µM	34.5 µM	50.4 µM	47.1 µM	–
CC(C)Oc1cccc(N2C(=NCCc3c[nH]c4ccccc34)Nc3ccncc3S2(=O)=O)c1	> 100 µM	> 100 µM	> 100 µM	> 100 µM	> 100 µM	> 100 µM	> 100 µM	> 100 µM	> 100 µM	> 100 µM	> 100 µM	> 100 µM	20.3 µM	> 100 µM	> 100 µM	> 100 µM	> 100 µM	> 100 µM	–	–
CCCCNC(=O)C1C2CCC(O2)C1C(=O)O (stereo not drawn)	–	41.8 µM	29.5 µM	> 100 µM	32.4 µM	43.4 µM	> 100 µM	95.4 µM	70.3 µM	29 µM	45.7 µM	> 100 µM	55.4 µM	45.1 µM	> 100 µM	43.7 µM	46.6 µM	43.3 µM	–	–
COc1ccc(/C(=C/n2ccnc2)C(O)c2ccc(OC)c(OC)c2)cc1OC (stereo not drawn)	–	–	> 100 µM	> 100 µM	> 100 µM	–	> 100 µM	> 100 µM	> 100 µM	> 100 µM	> 100 µM	> 100 µM	> 100 µM	> 100 µM	> 100 µM	–	–	> 100 µM	–	–
O=C(O)[C@H](Cc1ccccc1)NCCN1CCC[C@H]1C(=O)O	> 100 µM	> 100 µM	> 100 µM	> 100 µM	> 100 µM	> 100 µM	> 100 µM	–	> 100 µM	> 100 µM	–	–	> 100 µM	> 100 µM	> 100 µM	> 100 µM	–	> 100 µM	> 100 µM	–
C=C1C(OC(=O)/C=C/c2ccccc2)CC(OC(C)=O)C2(C)C1CC1CC(OC(C)=O)C(C)=C(C(OC(C)=O)C2OC(C)=O)C1(C)C (stereo not drawn)	–	> 100 µM	> 100 µM	> 100 µM	> 100 µM	> 100 µM	> 100 µM	> 100 µM	> 100 µM	> 100 µM	–	> 100 µM	> 100 µM	> 100 µM	> 100 µM	> 100 µM	> 100 µM	> 100 µM	–	–
COC(=O)C1=C(C)NC(C)=C(C(=O)OC)C1c1ccc(N=O)cc1	37 µM	6.61 µM	23.3 µM	26.3 µM	–	30 µM	> 55.3 µM	–	23.9 µM	32.2 µM	23.2 µM	30.1 µM	40.8 µM	43.9 µM	32.9 µM	24.4 µM	33.7 µM	21.7 µM	25.2 µM	–
CC(C)(C)OC(=O)NCCCC(=O)NC1(c2cc3ccccc3s2)CCCCC1	41 µM	34.1 µM	40.1 µM	14.8 µM	51 µM	24.3 µM	41.5 µM	27.9 µM	45.5 µM	–	31.9 µM	46.2 µM	30.6 µM	39.7 µM	–	37 µM	48.5 µM	48.3 µM	–	–
O=c1cc(-c2ccco2)[nH]c2cc3c(cc12)OCO3	–	–	–	> 100 µM	> 100 µM	> 100 µM	43.8 µM	> 100 µM	> 100 µM	> 100 µM	> 100 µM	> 100 µM	> 100 µM	> 100 µM	–	> 100 µM	> 100 µM	–	–	42.1 µM
C#CCN(N=O)C(=O)NCCCCC(NC(C)=O)C(=O)NCc1ccccc1 (stereo not drawn)	–	> 100 µM	> 100 µM	> 100 µM	> 100 µM	> 100 µM	> 100 µM	> 100 µM	> 100 µM	> 100 µM	> 100 µM	> 100 µM	> 100 µM	> 100 µM	> 100 µM	> 100 µM	> 100 µM	> 100 µM	–	–
CN(C)c1nncc2n[nH]nc12	> 100 µM	> 100 µM	> 100 µM	> 100 µM	> 100 µM	> 100 µM	> 100 µM	> 100 µM	> 100 µM	> 100 µM	> 100 µM	> 100 µM	> 100 µM	–	> 100 µM	> 100 µM	> 100 µM	> 100 µM	–	–
Cc1[nH]c(=O)[nH]c1C(=O)c1ccc(-n2ccnc2)cc1	–	> 100 µM	> 100 µM	> 100 µM	> 100 µM	> 100 µM	> 100 µM	> 100 µM	> 100 µM	> 100 µM	> 100 µM	> 100 µM	> 100 µM	> 100 µM	> 100 µM	> 100 µM	> 100 µM	> 100 µM	–	–
O=C1c2ccccc2C(=O)C1C(c1ccc(F)cc1)C1C(=O)c2ccccc2C1=O	–	> 100 µM	> 100 µM	> 100 µM	–	> 100 µM	> 100 µM	> 100 µM	> 100 µM	> 100 µM	> 100 µM	–	> 100 µM	> 100 µM	> 100 µM	> 100 µM	> 100 µM	> 100 µM	–	–
CCNC12CCC(C1)C(C)(C)C2=O (stereo not drawn)	> 100 µM	–	> 100 µM	> 100 µM	> 100 µM	> 100 µM	> 100 µM	> 100 µM	> 100 µM	> 100 µM	> 100 µM	> 100 µM	–	–	> 100 µM	–	> 100 µM	> 100 µM	–	–
C/C=C1\CN2CCc3c([nH]c4ccccc34)C2C=C1CCO (stereo not drawn)	–	> 340 µM	–	–	–	> 340 µM	> 340 µM	> 340 µM	> 340 µM	> 340 µM	> 340 µM	> 340 µM	> 340 µM	> 340 µM	> 340 µM	> 340 µM	> 340 µM	> 340 µM	–	–
